This passage reports IC50 results from ChEMBL document CHEMBL5725308, “Inhibitors of the fibroblast growth factor receptor” (2017).

In general, IC50 refers to the concentration needed to halve the response being measured. Lower therefore signals greater potency in that assay.

Where only a bound is given, the exact number is not on record here.

Chain of Fibroblast growth factor receptor 4 (P22455 whole entry): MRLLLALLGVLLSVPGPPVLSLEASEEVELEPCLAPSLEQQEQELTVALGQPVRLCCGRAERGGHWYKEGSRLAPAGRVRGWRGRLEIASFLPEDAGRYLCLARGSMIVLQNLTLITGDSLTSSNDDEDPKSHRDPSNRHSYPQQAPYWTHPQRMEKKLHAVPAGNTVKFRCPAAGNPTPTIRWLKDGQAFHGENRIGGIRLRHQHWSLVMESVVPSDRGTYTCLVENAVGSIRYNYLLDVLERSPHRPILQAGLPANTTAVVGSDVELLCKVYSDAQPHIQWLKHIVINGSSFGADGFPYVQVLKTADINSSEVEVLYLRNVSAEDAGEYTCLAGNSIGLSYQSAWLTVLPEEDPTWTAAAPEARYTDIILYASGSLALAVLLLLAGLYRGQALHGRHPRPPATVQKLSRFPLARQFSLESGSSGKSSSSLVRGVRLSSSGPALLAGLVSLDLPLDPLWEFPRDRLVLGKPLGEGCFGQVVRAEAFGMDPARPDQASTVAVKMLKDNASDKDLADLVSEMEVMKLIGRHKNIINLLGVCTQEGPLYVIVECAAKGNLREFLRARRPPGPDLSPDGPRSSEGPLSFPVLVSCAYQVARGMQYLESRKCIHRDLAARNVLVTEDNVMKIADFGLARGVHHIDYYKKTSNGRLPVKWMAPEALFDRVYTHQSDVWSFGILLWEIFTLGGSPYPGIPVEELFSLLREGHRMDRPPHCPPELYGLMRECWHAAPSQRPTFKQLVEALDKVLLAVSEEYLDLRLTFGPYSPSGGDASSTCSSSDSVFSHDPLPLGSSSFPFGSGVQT

The assay concerns the target Fibroblast growth factor receptor 4 (Homo sapiens, UniProt P22455). Kind of assay: The reaction was stopped by the addition of 70 ul of Stop buffer (100 mM HEPES pH 7.5, 0.015% Brij 35, 35 mM EDTA and 0.2% of Coating Reagent 3 (Caliper Lifesciences)). The plate was then read on a Caliper LabChip EZ Reader II (protocol settings: −1.9 psi, upstream voltage −700, downstream Voltage -3000, post sample sip 35S). It counts as biochemical.
Regarding `C=CC(=O)Nc1cccc(-c2cc3c(cn2)cc(-c2c(Cl)c(OC)cc(OC)c2Cl)c(=O)n3C2CCCC2)c1`, the IC50 was < 10 nM.

For the compound `C=CC(=O)N1CCc2ccc(-c3ncc4cc(-c5c(Cl)c(OC)cc(OC)c5Cl)c(=O)n(CC)c4n3)cc21`, the IC50 was < 10 nM.

For `C=CC(=O)Nc1ccccc1-c1ncc2cc(-c3c(Cl)c(OC)cc(OC)c3Cl)cc(OC)c2n1`, the IC50 is > 1000 nM.

For the compound `C=CC(=O)Nc1ccccc1-c1cc2c(cn1)cc(-c1c(Cl)c(OC)cc(OC)c1Cl)c(=O)n2C1CCCC1`, the IC50 is < 10 nM.

As for `C=CC(=O)N1CC(C)(C)Oc2ccc(-c3cc4c(cn3)cc(-c3c(Cl)c(OC)cc(OC)c3Cl)c(=O)n4CC)cc21`, the IC50 was < 10 nM.
